Values of other authors as cited in patent publication EP0156318A2, “C-terminal amide cyclic renin inhibitors containing peptide isosteres” (Merck & Co., Inc., priority 1984, dated 1985).
Square brackets hold non-standard residues; d marks the D form. Peptide text beside a SMILES is read from it. * marks the point of attachment. Sta = CC(C)C[C@H](N)[C@@H](O)CC(=O)O; Isovaleryl = CC(C)CC(=O)*

Test system: hog renin
Settings: after the injection of hog renin into nephrectomized rats

## CC(C)CC(=O)N[C@H](C(=O)N[C@H](C(=O)N[C@@H](CC(C)C)[C@@H](O)CC(=O)N[C@@H](C)C(=O)N[C@@H](CC(C)C)[C@@H](O)CC(=O)O)C(C)C)C(C)C [pepstatin] (Isovaleryl-VV[Sta]A[Sta]-OH)
  blood pressure in vivo: reduce blood pressure
